Reference: US20260306476A1, “ANTIBACTERIAL COMPOUND PBT2” (priority 2022, published 2026)
Like-named read-outs stand apart in the source and are kept apart here.

Tested on: MDR Neisseria gonorrhoeae
Assay: RNA-seq expression profile analysis after PBT2 treatment
Type: cell-based
Settings: for fold change in gene expression (up- or down-regulated) at 0.156 µg/mL / fold induction at 0.156 µg/mL: Neisseria gonorrhoeae
Description: Expression profile analysis using RNA-seq was performed to investigate the mode of action of PBT2 in killing Neisseria gonorrhoeae.

## CN(C)Cc1ccc2c(Cl)cc(Cl)c(O)c2n1 [PBT2, 5,7-dichloro-2-[(dimethylamino)methyl]quinolin-8-ol]
read-out: Fold Change, down-regulated gene WHOZ_00293 (Periplasmic protein)
  fold change in gene expression (up- or down-regulated) at 0.156 µg/mL: 3.56
read-out: Fold Change, down-regulated gene WHOZ_00873 (outer membrane protein)
  fold change in gene expression (up- or down-regulated) at 0.156 µg/mL: 3.36
read-out: Fold Change, down-regulated gene WHOZ_00996 (Na(+)-translocating NADH-quinone reductase subunit D)
  fold change in gene expression (up- or down-regulated) at 0.156 µg/mL: 3.25
read-out: Fold Change, down-regulated gene WHOZ_00998 (Na(+)-translocating NADH-quinone reductase subunit B)
  fold change in gene expression (up- or down-regulated) at 0.156 µg/mL: 3.3
read-out: Fold Change, down-regulated gene WHOZ_01539 (NADH dehydrogenase subunit C)
  fold change in gene expression (up- or down-regulated) at 0.156 µg/mL: 3.32
read-out: Fold Change, down-regulated gene WHOZ_01541 (NADH dehydrogenase subunit E)
  fold change in gene expression (up- or down-regulated) at 0.156 µg/mL: 3.77
read-out: Fold Change, down-regulated gene WHOZ_01542 (NADH-quinone oxidoreductase, F subunit)
  fold change in gene expression (up- or down-regulated) at 0.156 µg/mL: 3.57
read-out: Fold Change, down-regulated gene WHOZ_01545 (NADH-quinone oxidoreductase subunit H)
  fold change in gene expression (up- or down-regulated) at 0.156 µg/mL: 3.58
read-out: Fold Change, down-regulated gene WHOZ_01546 (NADH dehydrogenase subunit I)
  fold change in gene expression (up- or down-regulated) at 0.156 µg/mL: 4.11
read-out: Fold Change, down-regulated gene WHOZ_01547 (NADH dehydrogenase subunit J)
  fold change in gene expression (up- or down-regulated) at 0.156 µg/mL: 3.8
read-out: Fold Change, down-regulated gene WHOZ_01548 (NADH dehydrogenase subunit K)
  fold change in gene expression (up- or down-regulated) at 0.156 µg/mL: 4
read-out: Fold Change, down-regulated gene WHOZ_01549 (NADH:ubiquinone dehydrogenase, L subunit)
  fold change in gene expression (up- or down-regulated) at 0.156 µg/mL: 3.95
read-out: Fold Change, down-regulated gene WHOZ_01550 (Predicted HKD family nuclease)
  fold change in gene expression (up- or down-regulated) at 0.156 µg/mL: 3.73
read-out: Fold Change, down-regulated gene WHOZ_01551 (NADH dehydrogenase subunit M)
  fold change in gene expression (up- or down-regulated) at 0.156 µg/mL: 3.68
read-out: Fold Change, down-regulated gene WHOZ_01552 (NADH dehydrogenase subunit N)
  fold change in gene expression (up- or down-regulated) at 0.156 µg/mL: 3.41
read-out: Fold Change, down-regulated gene bfr (bacterioferritin), first entry
  fold change in gene expression (up- or down-regulated) at 0.156 µg/mL: 8.2
read-out: Fold Change, down-regulated gene bfr (bacterioferritin), second entry
  fold change in gene expression (up- or down-regulated) at 0.156 µg/mL: 7.73
read-out: Fold Change, down-regulated gene cysK (Cysteine synthetase)
  fold change in gene expression (up- or down-regulated) at 0.156 µg/mL: 3.38
read-out: Fold Change, down-regulated gene nqrE
  fold change in gene expression (up- or down-regulated) at 0.156 µg/mL: 3.48
read-out: Fold Change, down-regulated gene nqrF
  fold change in gene expression (up- or down-regulated) at 0.156 µg/mL: 3.47
read-out: Fold Change, up-regulated gene WHOZ_00302 (MpeR)
  fold induction at 0.156 µg/mL: 20.2
read-out: Fold Change, up-regulated gene WHOZ_00403 (putative lipoprotein)
  fold induction at 0.156 µg/mL: 19.1
read-out: Fold Change, up-regulated gene WHOZ_00412 (putative ferredoxin)
  fold induction at 0.156 µg/mL: 4.43
read-out: Fold Change, up-regulated gene WHOZ_00413 (Thioredoxin)
  fold induction at 0.156 µg/mL: 7.01
read-out: Fold Change, up-regulated gene WHOZ_00880 (integral membrane protein)
  fold induction at 0.156 µg/mL: 3.91
read-out: Fold Change, up-regulated gene WHOZ_01151 (TonB-dependent receptor plug domain-containing protein)
  fold induction at 0.156 µg/mL: 4.75
read-out: Fold Change, up-regulated gene WHOZ_01152 (hemoglobin receptor)
  fold induction at 0.156 µg/mL: 5.13
read-out: Fold Change, up-regulated gene WHOZ_01153 (hemoglobin receptor)
  fold induction at 0.156 µg/mL: 3.89
read-out: Fold Change, up-regulated gene WHOZ_01683 (fetA)
  fold induction at 0.156 µg/mL: 4.53
read-out: Fold Change, up-regulated gene WHOZ_01837 (outer membrane protein)
  fold induction at 0.156 µg/mL: 3.91
read-out: Fold Change, up-regulated gene WHOZ_01985 (hypothetical periplasmic protein)
  fold induction at 0.156 µg/mL: 5.49
read-out: Fold Change, up-regulated gene WHOZ_02005 (transferrin-binding protein-like)
  fold induction at 0.156 µg/mL: 10.1
read-out: Fold Change, up-regulated gene WHOZ_02042 (TonB)
  fold induction at 0.156 µg/mL: 11.9
read-out: Fold Change, up-regulated gene WHOZ_02043 (ExbB)
  fold induction at 0.156 µg/mL: 10.5
read-out: Fold Change, up-regulated gene WHOZ_02044 (ExbD protein)
  fold induction at 0.156 µg/mL: 12.5
read-out: Fold Change, up-regulated gene WP_003690577.1 (hypothetical protein)
  fold induction at 0.156 µg/mL: 4.61
read-out: Fold Change, up-regulated gene WP_003690710.1 (hypothetical protein)
  fold induction at 0.156 µg/mL: 8.64
read-out: Fold Change, up-regulated gene fumC (Fumarase C)
  fold induction at 0.156 µg/mL: 12.2
sub-MIC PBT2 0.156 mg/L, read-out: up-regulation of mpeR
  fold induction at 0.156 µg/mL: 20
sub-MIC PBT2 0.156 mg/L, read-out: up-regulation of seven genes
  fold induction at 0.156 µg/mL: > 10
down-regulated gene WHOZ_00293 (Periplasmic protein)
  LogFC: 1.83
down-regulated gene WHOZ_00873 (outer membrane protein)
  LogFC: 1.75
down-regulated gene WHOZ_00996 (Na(+)-translocating NADH-quinone reductase subunit D)
  LogFC: 1.70
down-regulated gene WHOZ_00998 (Na(+)-translocating NADH-quinone reductase subunit B)
  LogFC: 1.72
down-regulated gene WHOZ_01539 (NADH dehydrogenase subunit C)
  LogFC: 1.73
down-regulated gene WHOZ_01541 (NADH dehydrogenase subunit E)
  LogFC: 1.92
down-regulated gene WHOZ_01542 (NADH-quinone oxidoreductase, F subunit)
  LogFC: 1.83
down-regulated gene WHOZ_01545 (NADH-quinone oxidoreductase subunit H)
  LogFC: 1.84
down-regulated gene WHOZ_01546 (NADH dehydrogenase subunit I)
  LogFC: 2.04
down-regulated gene WHOZ_01547 (NADH dehydrogenase subunit J)
  LogFC: 1.93
down-regulated gene WHOZ_01548 (NADH dehydrogenase subunit K)
  LogFC: 2.00
down-regulated gene WHOZ_01549 (NADH:ubiquinone dehydrogenase, L subunit)
  LogFC: 1.98
down-regulated gene WHOZ_01550 (Predicted HKD family nuclease)
  LogFC: 1.90
down-regulated gene WHOZ_01551 (NADH dehydrogenase subunit M)
  LogFC: 1.88
down-regulated gene WHOZ_01552 (NADH dehydrogenase subunit N)
  LogFC: 1.77
down-regulated gene bfr (bacterioferritin), first entry
  LogFC: 3.03
down-regulated gene bfr (bacterioferritin), second entry
  LogFC: 2.95
